# Assay results: patent US20010044151A1, “Ligands for modulating the expression of exogenous genes via an ecdysone receptor complex” (priority 1998, published 2001)
# Biological target: T1, VgEcR and RXR heterodimeric receptor (pVgRXR) with pIND/LacZ(SPI) in CHO cells (Drosophila melanogaster, UniProt P34021, E282G/G283S/G286V)
# T1 construct: host or cells: CHO cells (ATCC CCL-61), transiently transfected or stably transformed with pVgRXR
# T1 sequence (P34021 1-878 E282G/G283S/G286V): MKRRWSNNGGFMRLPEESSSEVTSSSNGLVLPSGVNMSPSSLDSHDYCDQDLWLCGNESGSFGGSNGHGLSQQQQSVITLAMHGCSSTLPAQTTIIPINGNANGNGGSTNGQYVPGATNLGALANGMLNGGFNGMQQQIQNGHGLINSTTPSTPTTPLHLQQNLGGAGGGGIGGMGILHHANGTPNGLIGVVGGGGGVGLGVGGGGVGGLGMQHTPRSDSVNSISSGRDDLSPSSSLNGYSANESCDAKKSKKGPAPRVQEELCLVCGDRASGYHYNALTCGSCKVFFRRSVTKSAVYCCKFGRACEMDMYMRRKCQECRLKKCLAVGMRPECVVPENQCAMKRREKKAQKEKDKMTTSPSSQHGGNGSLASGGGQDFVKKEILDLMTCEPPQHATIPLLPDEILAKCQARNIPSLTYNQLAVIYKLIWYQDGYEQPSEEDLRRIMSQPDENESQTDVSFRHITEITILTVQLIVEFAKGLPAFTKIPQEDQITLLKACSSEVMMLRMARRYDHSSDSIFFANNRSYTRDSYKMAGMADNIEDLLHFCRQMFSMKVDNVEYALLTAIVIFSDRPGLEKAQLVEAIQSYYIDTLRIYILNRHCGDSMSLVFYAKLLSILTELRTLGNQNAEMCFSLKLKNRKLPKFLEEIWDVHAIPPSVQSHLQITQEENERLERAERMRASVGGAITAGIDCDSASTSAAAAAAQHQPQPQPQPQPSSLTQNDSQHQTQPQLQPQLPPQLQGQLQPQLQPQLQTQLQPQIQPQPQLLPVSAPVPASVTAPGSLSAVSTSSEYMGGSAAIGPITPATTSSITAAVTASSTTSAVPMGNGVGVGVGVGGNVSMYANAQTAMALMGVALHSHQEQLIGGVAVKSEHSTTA
# T1 sequence (P19793 1-462 partner): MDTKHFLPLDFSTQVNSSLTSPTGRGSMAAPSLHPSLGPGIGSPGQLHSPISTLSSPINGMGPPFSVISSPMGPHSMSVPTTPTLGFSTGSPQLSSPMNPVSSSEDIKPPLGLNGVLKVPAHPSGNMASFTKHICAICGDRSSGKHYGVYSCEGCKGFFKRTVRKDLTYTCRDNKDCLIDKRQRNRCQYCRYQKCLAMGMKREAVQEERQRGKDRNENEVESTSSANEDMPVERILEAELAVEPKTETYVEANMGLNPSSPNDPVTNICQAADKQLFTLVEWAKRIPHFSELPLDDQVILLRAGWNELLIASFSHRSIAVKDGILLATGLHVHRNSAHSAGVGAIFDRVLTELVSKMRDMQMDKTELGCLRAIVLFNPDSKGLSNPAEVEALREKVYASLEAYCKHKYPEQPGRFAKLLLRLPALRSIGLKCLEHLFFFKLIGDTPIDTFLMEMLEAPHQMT
# Experiment: β-Galactosidase gene activation in stably transformed CHO cells
# Format: cell-based
# Conditions: ligand 10 μM; for β-Galactosidase activity: average of triplicate samples, no ligand = 200; for Induction Ratio (RLU in presence and absence of the ligand): β-galactosidase
# Description: pVgRXR (Invitrogen Corp., Carlsbad, Calif.) is an […] plasmid that expresses both VgEcR and RXR to form a modified heterodimeric nuclear receptor (see No, D., et. al., (1996) Proc. Natl. Acad. Sci. USA, 93, 3346-3351). The ecdysone receptor (VgEcR) is derived from the natural Drosophila ecdysone receptor and modified to contain the VP16 transactivation domain (see Cress, W. D., and Triezenberg, S. J. (1991), Science 251, 87-90; Sadowski, I., et. al (1988) Nature 335, 563-564; Triezenberg, S. J et. al., (1988), Genes Dev 2, 718-729; Triezenberg, S. J., et. al., (1988), Genes Dev 2, 730-742). RXR as the mammalian homologue of USP (ultraspiracle), the natural partner to the Drosophila ecdysone receptor (see Yao, T. -P., et. al., (1993), Nature 366, 476-479, Yao, T. -P., et. al., (1992), Cell 71, 63-72). The P-box region of the VgEcR DNA binding domain was modified to recognize the hybrid ecdysone response element that consists of one half-site from the gluccorticoid response element (see Umesono, K., and Evans, R. M. (1989), Cell 57, 1139-1146) and one half-site from the natural ecdysone response element. This hybrid response element reduces any possible interaction with the farsenoid X receptor that may bind the natural ecdysone responsive element (EcRE). The cytomegalovirus enhancer-promoter drives expression of VgEcR, and the Rous sarcoma virus promoter drives expression of RXR. The vector pIND (Invitrogen Corp) is a 5024 bp vector based on pcDNA3.1. It contains five hybrid E/GREs recognized by the modified ecdysone receptor expressed from pVgRXR and a minimal heat shock promoter (see Yao, T. P., et. al., (1993), Nature, 366, 476-479). pIND/lacZ (Invitrogen Crop.) is a 8170 bp plasmid that contains the β-galactosidase gene as a reporter enzyme. Cotransfection of pIND/lacZ and pVgRXR results in the induction of β-galactosidase expression upon addition of ecdysone agonists such as muristerone A. The reporter plasmid pIND/luc was constructed by subcloning the firefly luciferase gene from pGL3 (Promega/E1741) as a Nhe I-BamHI fragment into pIND, also digested with Nhe I and BamHI.
# CHO cells stably transformed with pVgRXR and pIND/LacZ(SPI) (Invitrogen Crop.) were maintained in Hams F-12 media containing 10% FBS, 2 mM glutamine, 300 μg/ml Zeocin (Invitrogen Crop.) and 300 μg/ml Hygromycin B. pIND(SPI), an alternative to the pIND vector, can be induced to absolute expression levels five-fold greater than that of pIND due to the presence of 3 cis-acting SPI elements. Basal expression levels are correspondingly greater.
# Stock solutions (10^−2 M) were prepared for muristerone A and the non-steroidal ligands of the present invention in ethanol and acetone respectively, and stored at −20° C. Twenty-four hours after transfection, a test compound was added at a final concentration of 10 μM (10^−5 M) to each 1 ml cell culture well. Muristerone A (Sigma, M7888) at 10 μM concentration was used as a positive control. Acetone alone was added as a negative control.
# Reporter gene expression was evaluated 24-48 hours after treatment of transiently transfected cells or 24 hours after treatment of the stably transformed cell line with test ligands. β-galactosidase was assayed by either staining fixed cells or assaying for enzymatic activity in cellular lysates. β-galactosidase catalyzes the hydrolysis of the β-galactoside, X-gal (5-bromo-4-chloro-3-indolyl-β-galactopyranoside) producing a blue color within the fixed cells (Invitrogen, K1465-01) that can be visualized under a microscope. Alternatively, reporter lysis buffer (RLB; Promega/E397A) was used to lyse the cells for the detection of β-galactosidase activity using a chemiluminescent substrate, Galacto-Star (Tropix/BM100S). The cells within each 12-well plate were lysed with 250 μl of RLB. Twenty μl of each extract was assayed with 100 μl of substrate. […]
SMILES,β-Galactosidase activity [RLU],Induction Ratio (RLU in presence and absence of the ligand)
"CCc1ccc(C(=O)NN(C(=O)c2cc(C)cc(C)c2)C(C)(C)C)cc1 [CE-1, N-(4-ethylbenzoyl)-N′-(3,5-dimethylbenzoyl)-N′-tert-butyl-hydrazine, reference compound]",323,2
"CC(C)(C)N(NC(=O)c1ccccc1)C(=O)c1ccccc1 [CE-2, 1,2-dibenzoyl-1-tert-butyl-hydrazine, reference compound]",145,1
"CC(C)CC[C@@H](O)[C@](C)(O)[C@H]1CC[C@@]2(O)C3=CC(=O)[C@]4(O)C[C@@H](O)[C@@H](O)C[C@]4(C)[C@H]3[C@H](O)C[C@]12C [CE-3, muristerone A, reference compound]",9830,49
"CC(C)CC[C@@H](O)[C@](C)(O)[C@H]1CC[C@@]2(O)C3=CC(=O)[C@@H]4C[C@@H](O)[C@@H](O)C[C@]4(C)[C@H]3CC[C@]12C [CE-4, ponasterone A, reference compound]",10386,52
CCc1c(OC)cccc1C(=O)NN(C(=O)c1cccc(OC)c1)C(C)(C)C [Ligand 1],1123,6
Cc1cc(C)cc(C(=O)N(NC(=O)c2ccc3c(c2C)OCCO3)C(C)(C)C)c1 [Ligand 2],536,3
COc1cccc(C(=O)NN(C(=O)c2cc(C)cc(C)c2)C(C)(C)C)c1C [Ligand 3],681,3
CCc1c(OC)cccc1C(=O)NN(C(=O)c1cc(F)cc(F)c1)C(C)(C)C [Ligand 4],1963,10
CCc1c(OC)cccc1C(=O)NN(C(=O)c1cc(C)cc(C)c1)C(C)(C)C [Ligand 5],11599,58
CCOc1cccc(C(=O)NN(C(=O)c2cc(C)cc(C)c2)C(C)(C)C)c1CC [Ligand 12],9830,49
CCc1c(OC)cccc1C(=O)NN(C(=O)c1cc(Cl)cc(Cl)c1)C(C)(C)C [Ligand 13],6667,33
